Assay results from patent publication US10696686B2, “Herbicidally active (alkynyl-phenyl)-substituted cyclic dione compounds and derivatives thereof” (Syngenta Limited, priority 2013, dated 2020).
Read-outs that look alike come from different tables or passages of the source.

Tests used:
Format in all cases: in vivo
[1] = system: Digitaria sanguinalis (DIGSA); assay: Biological Example 3 glasshouse assay using various adjuvant systems, post-emergence foliar spray; settings: 8 g/ha
Procedure: Post-emergence foliar spray application, 200 L/ha, usually one or two replicates for the weeds (depending on application rate), and two replicates for soybean.
Standard warm conditions (tropical), in glasshouse. Specifically, the glasshouse bay conditions are 24° C./18° C. day/night; 16/8 hours light/dark; 65% humidity.
The herbicidal application takes place at the following growth stages for plants which include inter alia one or more of the following plants (usually the herbicidal application takes place on at least the following plants: DIGSA, ELEIN, SETFA, ZEAMX, GLXMA Nikko, and GLXMA TMG133, and often also either BRADC or BRAPP):
Digitaria sanguinalis (DIGSA)—growth stage 12 or 13
Each test compound is applied with one of the following adjuvant systems (all percentages are final concentrations in the aqueous spray mixture):
Adjuvant system 1: 0.5% v/v Adigor™ *, 1.0% v/v AMS (ammonium sulphate) and 12.5% v/v IPA (isopropyl alcohol).
Adjuvant system 1A: 0.5% v/v Adigor™ * and 12.5% v/v IPA (isopropyl alcohol).
CAS Registry no. […] A visual assessment of the % herbicidal damage is made 7 and 14 Days After herbicide Application (DAA) (or, in a minority of cases, 7 and 15 DAA), and the results are recorded as % visual herbicidal damage where 0%=no damage to plants and 100%=plant totally killed. *** Adjuvant system=either Adigor™ or Hexamoll DINCH™ or tris-(2-ethylhexyl) phosphate each at 0.5% v/v, and 12.5% v/v IPA (isopropyl alcohol), and 1.0% v/v AMS (ammonium sulphate); or 0.5% v/v Adigor™ and 12.5% v/v IPA (isopropyl alcohol); all percentages are final concentrations in the aqueous spray mixture. […]
The percentages of herbicidal damage/plant control, at 14 Days After herbicide Application (DAA) (or, in a minority of cases, at 15 DAA), for the Compounds tested and for some of the plants tested, were in the following percentage ranges. […] Phytotoxicity on Glycine max (GLXMA, Soybean) Cultivar “TMG133” Glycine max (GLXMA, soybean) cultivar “TMG133” is Roundup Ready™ glyphosate-tolerant soybean cultivar TMG133, and is typically available from Monsanto in Brazil. […]

[2] = system: Setaria faberi (SETFA); assay: Biological Example 1A glasshouse assay, post-emergence application; settings: Setaria faberi, post-emergence, 312 h, read-out: Percentage phytotoxicity SETFA
Procedure: (§1) Seeds of a variety of test plant species were sown in standard soil ** in pots. After cultivation for one day (pre-emergence) or after 8 days cultivation (post-emergence) under controlled conditions in a glasshouse (at 24/16° C., day/night; 14 hours light; 65% humidity), the plants were sprayed with an aqueous spray solution derived from the formulation of the technical active ingredient (the test herbicide) in acetone/water (50:50) solution containing 0.5% Tween 20 (polyoxyethylene sorbitan monolaurate, CAS Reg. No. 9005-64-5). The test plants were then grown on under controlled conditions in a glasshouse (at 24/16° C., day/night; 14 hours light; 65% humidity) and watered twice daily. 13 Days after application of the test herbicide, for pre- and post-emergence, the test was evaluated visually for percentage phytotoxicity to each plant (where 100%=total damage to plant; 0%=no damage to plant). Generally, each test herbicide is only tested on 1 plant per plant species for each application rate tested and for each application timing. ** The “standard soil” in Biological Example 1 is usually a “sand” or “sandy loam” type of soil.
(§2) Dicotyledonous weeds: ABUTH=Abutilon theophrasti; AMARE=Amaranthus retroflexus. Grassy monocotyledonous weeds: SETFA=Setaria faberi; ALOMY=Alopecurus myosuroides; ECHCG=Echinochloa crus-galli; ZEAMX=Zea mays (corn, maize, e.g. volunteer corn). For Compound A16, the grassy monocotyledonous weed LOLPE (Lolium perenne) was used in the test insterad of ALOMY.

[3] = system: Zea mays (ZEAMX, corn, maize, e.g. volunteer corn); assay: as above; settings: Zea mays, post-emergence, 312 h, read-out: Percentage phytotoxicity ZEAMX
Procedure: as §1, §2

[4] = system: Alopecurus myosuroides (ALOMY); assay: as above; settings: 13 days after application
Procedure: as §1, §2

[5] = system: Amaranthus retroflexus (AMARE); assay: as above; settings: 312 h, read-out: Percentage phytotoxicity AMARE
Procedure: as §1, §2

[6] = system: Abutilon theophrasti (ABUTH); assay: as above; settings: 312 h, read-out: Percentage phytotoxicity ABUTH
Procedure: as §1, §2

[7] = system: Echinochloa crus-galli (ECHCG); assay: as above; settings: 312 h, read-out: Percentage phytotoxicity ECHCG
Procedure: as §1, §2

[8] = 30 g/ha, 13 days after application
[9] = 250 g/ha, 13 days after application

## C#CCC1CC(=O)C(c2c(F)cc(C#CC)cc2OC)C1=O (centres unmarked) [Compound A8, 2-(2-fluoro-6-methoxy-4-prop-1-ynyl-phenyl)-4-prop-2-ynyl-cyclopentane-1,3-dione]
[1]; 14 DAA, adjuvant 0.5% v/v Adigor + 12.5% v/v IPA
  percentage control of (phytotoxicity on) Digitaria sanguinalis (DIGSA): 65%
[2]
  pest or weed control at 30 g/ha: 80%
  pest or weed control at 250 g/ha: 100%
[3]
  pest or weed control at 30 g/ha: 100%
  pest or weed control at 250 g/ha: 100%
[4]; 30 g/ha
  Percentage phytotoxicity ALOMY: 70%
[4]; 250 g/ha
  Percentage phytotoxicity ALOMY: 90%
[5]
  pest or weed control at 30 g/ha: 0%
  pest or weed control at 250 g/ha: 0%
[6]
  pest or weed control at 30 g/ha: 0%
  pest or weed control at 250 g/ha: 70%
[7]
  pest or weed control at 30 g/ha: 100%
  pest or weed control at 250 g/ha: 100%

## CC#Cc1cc(F)c(C2C(=O)CC(CCSC)CC2=O)c(OC)c1 (centres unmarked) [Compound A11]
[1]; 14 DAA (A11: 14 or 15 DAA), adjuvant 0.5% v/v Adigor + 1.0% v/v AMS + 12.5% v/v IPA
  percentage control of Digitaria sanguinalis (DIGSA): 0%
[2]; [8]
  pest or weed control at 30 g/ha: 30%
[2]; [9]
  pest or weed control at 250 g/ha: 60%
[3]; [8]
  pest or weed control at 30 g/ha: 20%
[3]; [9]
  pest or weed control at 250 g/ha: 20%
[4]; 30 g/ha
  Percentage phytotoxicity ALOMY: 0%
[4]; 250 g/ha
  Percentage phytotoxicity ALOMY: 10%
[5]; [8]
  pest or weed control at 30 g/ha: 30%
[5]; [9]
  pest or weed control at 250 g/ha: 50%
[6]; [8]
  pest or weed control at 30 g/ha: 0%
[6]; [9]
  pest or weed control at 250 g/ha: 10%
[7]; [8]
  pest or weed control at 30 g/ha: 0%
[7]; [9]
  pest or weed control at 250 g/ha: 10%
